This passage reports binding and KD results from PMC11434422 (2024).

In experiment [1] the test system is ssDNA (ssDNA-compDNA2 hybridized to anchorDNA2) (DNA, single strand) TGTGTAGTGCGGGTTTTTTTTTTGAGATGCAGATCCTGT
Put plainly: SPR, multi-cycle injections. The conditions noted are these: 150 mM Li+, 10 mM Ca2+; HBS-EP pH 7.4, 10 mM HEPES, 3 mM EDTA, 0.05% P20, 1% DMSO; hemin 10-100 µM; highest hemin 100 µM; legend: minimal binding.

For experiment [2], the system named is c-MYC-G3 (c-MYC-G3-compDNA1 hybridized to anchorDNA1) (DNA, other) TGGGGAGGGTGGGGAATTTTTTTTTCGTGTATTGCTC
Put plainly: SPR, multi-cycle kinetics, 1:1 fit. Conditions: 150 mM Li+, 10 mM Ca2+; HBS-EP pH 7.4, 10 mM HEPES, 3 mM EDTA, 0.05% P20, 1% DMSO; hemin 10-100 µM. In general terms: SPR reads the build-up and loss of mass on a sensor chip optically.

The term KD denotes a measure of binding affinity in units of concentration. A high value points to lower affinity.

Regarding `C=CC1=C(C)C2=Cc3c(C=C)c(C)c4[n]3[Fe]([Cl])[n]3c(c(C)c(CCC(=O)O)c3=CC3=NC(=C4)C(C)=C3CCC(=O)O)=CC1=N2`, in experiment [1], the binding result is “no”. In addition, the KD in experiment [2] turned out to be 263 ± 3 µM.
